# Measured values taken from article PMC7413254 (Nature Communications, 2020).
# Read-outs that look alike come from different tables or passages of the source.
# Experiments:
# non-expressing oocytes [1] = type: cell-based, Xenopus laevis; conditions: total [3H]CQ transport; for Uptake of [3H]CQ (% non-expressing oocyte control), trans-stimulation: non-expressing oocytes, normalised to the oocyte type control; for Uptake of [3H]CQ (% PfCRTDd2 control), trans-stimulation, non-expressing oocytes: mean ± SEM, SEM
# Procedure, shortened: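 Oocytes (ten per treatment, ≥4 independent frogs/days) were preloaded by injecting VF-6 in 25 nL ND96 at pH 5.0, 5.5, 6.0 or 7.0, or Na^+-free choline buffer, then uptake run 1.5 h, 27.5 °C, ND96 pH 5.5 by default. Internal concentrations assumed ~400 nL oocyte volume.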
# non-expressing oocytes [2] = assay: cells; type: cell-based, Xenopus laevis; conditions: Xenopus laevis, total [3H]CQ transport; for inhibition at 500 µM: [test solute] = 0.5 mM; for inhibition at 1000 µM: [test solute] = 1 mM; for inhibition at 2000 µM: [test solute] = 2 mM
# Procedure, shortened: (§1)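 Assay buffer ND96 (10 mM MES, 10 mM Tris-base) held at pH 5.5 to mimic vacuole lumen; uptake measured inward from this acidic medium over 1.5 h at 27.5 °C.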
# PfCRT [3] = assay: Influx of VF-6 via PfCRT into the oocyte, solutes tested as potential co-substrates; type: cell-based, Plasmodium falciparum; design: key: X: Compounds that have been tested as potential co-substrates but are not required for influx of VF-6 via PfCRT into the oocyte; conditions: X marks the solute
# PfCRT [4] = assay: Test of solutes as potential co-substrates for influx of VF-6 via PfCRT into the oocyte; type: cell-based, Plasmodium falciparum; design: key: X: Compounds that have been tested as potential co-substrates but are not required for influx of VF-6 via PfCRT into the oocyte; conditions: X = tested
# PfCRT^3D7 [5] = target: T1, PfCRT^3D7 (Plasmodium falciparum, UniProt Q8IBZ9); assay: cell-based; type: cell-based; conditions: total [3H]CQ transport; for inhibition at 500 µM: [test solute] = 0.5 mM; for inhibition at 1000 µM: [test solute] = 1 mM; for inhibition at 2000 µM: [test solute] = 2 mM
# T1 sequence (Q8IBZ9 59-398): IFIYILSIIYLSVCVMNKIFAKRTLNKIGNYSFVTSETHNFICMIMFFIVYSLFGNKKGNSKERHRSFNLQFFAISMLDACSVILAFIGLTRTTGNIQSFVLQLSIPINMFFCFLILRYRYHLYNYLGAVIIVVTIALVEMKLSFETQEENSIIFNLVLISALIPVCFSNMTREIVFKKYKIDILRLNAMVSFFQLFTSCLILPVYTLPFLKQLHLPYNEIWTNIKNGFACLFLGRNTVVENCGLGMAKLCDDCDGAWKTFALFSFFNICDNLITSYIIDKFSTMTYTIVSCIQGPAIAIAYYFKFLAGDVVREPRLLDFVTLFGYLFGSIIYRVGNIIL
# Procedure, shortened: as §1
# PfCRT^Ecu1110 [6] = target: T2, PfCRT^Ecu1110 (Plasmodium falciparum, UniProt Q9N623, A220S/I356L/K76T/N326D); assay: [3H]CQ uptake into Xenopus oocytes, cis-inhibition by unlabelled solute; type: cell-based
# T2 sequence (Q9N623 whole entry A220S/I356L/K76T/N326D): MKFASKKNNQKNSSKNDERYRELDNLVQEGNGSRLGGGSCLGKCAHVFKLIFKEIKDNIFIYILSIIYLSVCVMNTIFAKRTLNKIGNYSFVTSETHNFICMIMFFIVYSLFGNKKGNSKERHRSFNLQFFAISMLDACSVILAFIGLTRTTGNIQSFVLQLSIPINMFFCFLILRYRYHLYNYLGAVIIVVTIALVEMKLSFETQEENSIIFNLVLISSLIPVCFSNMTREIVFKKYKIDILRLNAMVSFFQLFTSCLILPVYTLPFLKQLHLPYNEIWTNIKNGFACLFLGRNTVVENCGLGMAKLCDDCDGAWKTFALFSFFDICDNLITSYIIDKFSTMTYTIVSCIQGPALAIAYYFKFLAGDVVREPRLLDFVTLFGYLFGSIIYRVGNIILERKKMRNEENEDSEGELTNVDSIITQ
# Procedure, shortened: as §1
# PfCRT^Dd2 [7] = target: T3, PfCRT^Dd2 (Plasmodium falciparum, UniProt Q9N623, A220S/I356T/K76T/M74I/N326S/N75E/Q271E/R371I); assay: as above; type: cell-based
# T3 sequence (Q9N623 whole entry A220S/I356T/K76T/M74I/N326S/N75E/Q271E/R371I): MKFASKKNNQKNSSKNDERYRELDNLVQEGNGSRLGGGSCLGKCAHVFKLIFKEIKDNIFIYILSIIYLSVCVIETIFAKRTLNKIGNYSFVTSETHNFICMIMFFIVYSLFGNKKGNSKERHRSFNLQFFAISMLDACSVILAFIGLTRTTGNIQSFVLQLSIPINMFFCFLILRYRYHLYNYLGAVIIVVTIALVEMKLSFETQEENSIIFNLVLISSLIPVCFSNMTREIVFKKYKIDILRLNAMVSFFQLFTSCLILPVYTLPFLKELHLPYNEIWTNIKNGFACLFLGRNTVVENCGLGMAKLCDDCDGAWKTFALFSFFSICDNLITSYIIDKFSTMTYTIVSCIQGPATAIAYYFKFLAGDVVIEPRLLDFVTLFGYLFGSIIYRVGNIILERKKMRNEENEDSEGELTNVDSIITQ
# Procedure, shortened: as §1
# PfNT1 = target: T4, PfNT1 (Plasmodium falciparum, UniProt Q8IDM6); assay: cell-based; type: cell-based; conditions: for activity at 5000 µM: total [3H]CQ transport
# T4 construct: expressed in transfected cells; host or cells: Xenopus laevis oocytes (stage V-VI), cRNA-injected
# T4 sequence (Q8IDM6 whole entry): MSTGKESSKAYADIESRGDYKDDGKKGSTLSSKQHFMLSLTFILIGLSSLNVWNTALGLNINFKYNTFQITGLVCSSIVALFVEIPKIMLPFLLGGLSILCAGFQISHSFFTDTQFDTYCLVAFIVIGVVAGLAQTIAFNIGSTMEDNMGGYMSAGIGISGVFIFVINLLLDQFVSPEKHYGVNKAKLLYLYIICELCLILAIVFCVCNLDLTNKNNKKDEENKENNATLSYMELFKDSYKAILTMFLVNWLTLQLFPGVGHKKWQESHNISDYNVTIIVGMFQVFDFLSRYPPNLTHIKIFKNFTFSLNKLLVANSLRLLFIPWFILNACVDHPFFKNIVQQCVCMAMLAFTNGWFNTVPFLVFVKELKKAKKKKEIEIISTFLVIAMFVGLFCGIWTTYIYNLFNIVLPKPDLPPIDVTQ
# Procedure, shortened: (§2)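 Transport measured in Xenopus oocytes expressing the transporters, 1.5 h at 27.5 °C in ND96 pH 5.5 unless noted. For trans-stimulation, VF-6 injected in 25 nL ND96 at pH 5.0–7.0 or Na^+-free (choline) buffer; intracellular levels based on ~400 nL oocyte volume. Ten oocytes per treatment, ≥4 experiments.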
# PfCRT^3D7 [8] = target: T1, PfCRT^3D7; assay: cell-based; type: cell-based
# Procedure, shortened: as §2
# PfCRT^Ecu1110 [9] = target: T2, PfCRT^Ecu1110; assay: cell-based; type: cell-based; conditions: […]
# Procedure, shortened: as §2
# PfCRT^Dd2 [10] = target: T3, PfCRT^Dd2; assay: cell-based; type: cell-based; conditions: […]
# Procedure, shortened: as §2
# [11] = Oocyte, mean ± SEM, SEM, read-out: Uptake of [3H]CQ (% PfCRTDd2 control), cis-inhibition, non-expressing oocytes
# [12] = non-expressing oocytes, normalised to the oocyte type control, read-out: Uptake of [3H]CQ (% non-expressing oocyte control), cis-inhibition
# [13] = PfCRT3D7 oocytes, normalised to the oocyte type control, read-out: Uptake of [3H]CQ (% PfCRT3D7 control), cis-inhibition
# [14] = mean ± SEM, SEM, read-out: Uptake of [3H]CQ (% PfCRTDd2 control), cis-inhibition, PfCRT3D7
# [15] = read-out: PfCRT-mediated [3H]CQ transport, cis-inhibition (% PfCRTEcu1110 control)
# [16] = read-out: Uptake of [3H]CQ (% PfCRTDd2 control), cis-inhibition, PfCRTEcu1110, SEM
# [17] = read-out: Uptake of [3H]CQ (% PfCRTEcu1110 control), cis-inhibition
# [18] = read-out: [3H]CQ transport (% PfCRTEcu1110 control), cis-inhibition, PfCRTEcu1110, SEM
# [19] = read-out: PfCRT-mediated [3H]CQ transport, cis-inhibition (% PfCRTDd2 control)
# [20] = read-out: Uptake of [3H]CQ (% PfCRTDd2 control), cis-inhibition, PfCRTDd2, SEM
smiles,measurement,setting,value
N[C@@H](Cc1c[nH]cn1)C(=O)O [L-histidine],"Uptake of [3H]CQ (% non-expressing oocyte control), trans-stimulation",non-expressing oocytes [1]; [test solute]i = 5 mM,99 ± 3.6 % non-expressing oocyte control
same,"Uptake of [3H]CQ (% non-expressing oocyte control), trans-stimulation",non-expressing oocytes [1]; [test solute]i = 45 mM (30 mM for some solutes due to solubility),100 ± 4.8 % non-expressing oocyte control
same,"Uptake of [3H]CQ (% PfCRTDd2 control), trans-stimulation, non-expressing oocytes",non-expressing oocytes [1]; [test solute]i = 5 mM (intracellular),3.0 ± 0.06 % PfCRTDd2 control
same,"Uptake of [3H]CQ (% PfCRTDd2 control), trans-stimulation, non-expressing oocytes",non-expressing oocytes [1]; [test solute]i = 45 mM (intracellular; 30 mM for some solutes due to solubility),2.5 ± 0.01 % PfCRTDd2 control
same,inhibition at 500 µM,non-expressing oocytes [2]; [11],2.4 ± 0.06%
same,inhibition at 1000 µM,non-expressing oocytes [2]; [11],2.8 ± 0.07%
same,inhibition at 2000 µM,non-expressing oocytes [2]; [11],2.6 ± 0.05%
same,inhibition at 500 µM,non-expressing oocytes [2]; [12],96 ± 4.3%
same,inhibition at 1000 µM,non-expressing oocytes [2]; [12],99 ± 3.7%
same,inhibition at 2000 µM,non-expressing oocytes [2]; [12],99 ± 4.7%
same,Compounds that have been tested as potential co-substrates but are not required for influx of VF-6 via PfCRT into the oocyte,PfCRT [3],X
same,Tested as potential co-substrate but not required for influx of VF-6 via PfCRT into the oocyte,PfCRT [4],X
same,inhibition at 500 µM,PfCRT^3D7 [5]; [13],99 ± 5.2%
same,inhibition at 1000 µM,PfCRT^3D7 [5]; [13],99 ± 3.6%
same,inhibition at 2000 µM,PfCRT^3D7 [5]; [13],101 ± 4.7%
same,inhibition at 500 µM,PfCRT^3D7 [5]; [14],3.7 ± 0.02%
same,inhibition at 1000 µM,PfCRT^3D7 [5]; [14],2.8 ± 0.02%
same,inhibition at 2000 µM,PfCRT^3D7 [5]; [14],2.8 ± 0.03%
same,inhibition at 500 µM,PfCRT^Ecu1110 [6]; [15],95 ± 1.5%
same,inhibition at 1000 µM,PfCRT^Ecu1110 [6]; [15],94 ± 3.2%
same,inhibition at 2000 µM,PfCRT^Ecu1110 [6]; [15],98 ± 2.6%
same,inhibition at 500 µM,PfCRT^Ecu1110 [6]; [16],32 ± 1.4%
same,inhibition at 1000 µM,PfCRT^Ecu1110 [6]; [16],31 ± 2.1%
same,inhibition at 2000 µM,PfCRT^Ecu1110 [6]; [16],33 ± 1%
same,inhibition at 500 µM,PfCRT^Ecu1110 [6]; [17],97 ± 5.6%
same,inhibition at 1000 µM,PfCRT^Ecu1110 [6]; [17],96 ± 4.6%
same,inhibition at 2000 µM,PfCRT^Ecu1110 [6]; [17],100 ± 8.2%
same,inhibition at 500 µM,PfCRT^Ecu1110 [6]; [18],29 ± 0.4%
same,inhibition at 1000 µM,PfCRT^Ecu1110 [6]; [18],28 ± 0.2%
same,inhibition at 2000 µM,PfCRT^Ecu1110 [6]; [18],30 ± 1.3%
same,inhibition at 500 µM,PfCRT^Dd2 [7]; [19],96 ± 3.6%
same,inhibition at 1000 µM,PfCRT^Dd2 [7]; [19],97 ± 4.1%
same,inhibition at 500 µM,PfCRT^Dd2 [7]; [20],98 ± 9.7%
same,inhibition at 1000 µM,PfCRT^Dd2 [7]; [20],99 ± 4.2%
same,inhibition at 2000 µM,PfCRT^Dd2 [7]; [20],100 ± 2.2%
same,activity at 5000 µM,"PfNT1; PfNT1 oocytes, [test solute]i = 5 mM, normalised to the oocyte type control, read-out: Uptake of [3H]CQ (% PfNT1 control), trans-stimulation",99 ± 3.3%
same,activity at 45000 µM,"PfNT1; SEM, read-out: Uptake of [3H]CQ (% PfCRTDd2 control), trans-stimulation, PfNT1",2.6 ± 0.04%
same,activity at 45000 µM,"PfNT1; read-out: Uptake of [3H]CQ (% PfNT1 control), trans-stimulation",99 ± 4.2%
same,activity at 5000 µM,"PfNT1; [test solute]i = 5 mM (intracellular), mean ± SEM, SEM, read-out: Uptake of [3H]CQ (% PfCRTDd2 control), trans-stimulation, PfNT1",2.2 ± 0.09%
same,activity at 5000 µM,"PfCRT^3D7 [8]; PfCRT3D7 oocytes, [test solute]i = 5 mM, total [3H]CQ transport, normalised to the oocyte type control, read-out: Uptake of [3H]CQ (% PfCRT3D7 control), trans-stimulation",97 ± 3.6%
same,"[3H]CQ transport (% PfCRT3D7 control), trans-stimulation, PfCRT3D7",PfCRT^3D7 [8]; SEM,0.2 ± 0.01 % PfCRT3D7 control
same,activity at 5000 µM,"PfCRT^3D7 [8]; [test solute]i = 5 mM (intracellular), PfCRT3D7 oocytes, normalised to oocyte type control, read-out: PfCRT-mediated [3H]CQ transport, trans-stimulation (% PfCRT3D7 control)",95 ± 2.9%
same,activity at 45000 µM,"PfCRT^3D7 [8]; SEM, read-out: Uptake of [3H]CQ (% PfCRTDd2 control), trans-stimulation, PfCRT3D7",3.3 ± 0.02%
same,activity at 45000 µM,"PfCRT^3D7 [8]; read-out: PfCRT-mediated [3H]CQ transport, trans-stimulation (% PfCRT3D7 control)",97 ± 2.2%
same,activity at 45000 µM,"PfCRT^3D7 [8]; read-out: Uptake of [3H]CQ (% PfCRT3D7 control), trans-stimulation",99 ± 3.7%
same,activity at 5000 µM,"PfCRT^3D7 [8]; total [3H]CQ transport, [test solute]i = 5 mM (intracellular), mean ± SEM, SEM, read-out: Uptake of [3H]CQ (% PfCRTDd2 control), trans-stimulation, PfCRT3D7",3.2 ± 0.09%
same,activity at 5000 µM,"PfCRT^Ecu1110 [9]; pH 5.5, read-out: Uptake of [3H]CQ (% PfCRTEcu1110 control), trans-stimulation, PfCRTEcu1110 oocytes, [test solute]i = 5 mM, total [3H]CQ transport, normalised to the oocyte type control",100 ± 3.6%
same,activity at 45000 µM,"PfCRT^Ecu1110 [9]; pH 5.5, read-out: Uptake of [3H]CQ (% PfCRTEcu1110 control), trans-stimulation, PfCRTEcu1110 oocytes, [test solute]i = 45 mM (30 mM for some solutes due to solubility), total [3H]CQ transport, normalised to the oocyte type control",99 ± 3%
same,activity at 5000 µM,"PfCRT^Ecu1110 [9]; read-out: Uptake of [3H]CQ (% PfCRTDd2 control), trans-stimulation, PfCRTEcu1110, total [3H]CQ transport, [test solute]i = 5 mM (intracellular), mean ± SEM, SEM",36 ± 1.3%
same,activity at 45000 µM,"PfCRT^Ecu1110 [9]; read-out: Uptake of [3H]CQ (% PfCRTDd2 control), trans-stimulation, PfCRTEcu1110, total [3H]CQ transport, [test solute]i = 45 mM (intracellular; 30 mM for some solutes due to solubility), mean ± SEM, SEM",35 ± 2.5%
same,activity at 5000 µM,"PfCRT^Dd2 [10]; pH 5.5, read-out: Uptake of [3H]CQ (% PfCRTDd2 control), trans-stimulation, PfCRTDd2, total [3H]CQ transport, [test solute]i = 5 mM (intracellular), mean ± SEM, SEM",101 ± 2.2%
same,activity at 5000 µM,"PfCRT^Dd2 [10]; pH 5.5, read-out: Uptake of [3H]CQ (% PfCRTDd2 control), trans-stimulation, PfCRTDd2 oocytes, [test solute]i = 5 mM, total [3H]CQ transport, normalised to the oocyte type control",101 ± 2.2%
same,activity at 45000 µM,"PfCRT^Dd2 [10]; pH 5.5, read-out: Uptake of [3H]CQ (% PfCRTDd2 control), trans-stimulation, PfCRTDd2 oocytes, [test solute]i = 45 mM (30 mM for some solutes due to solubility), total [3H]CQ transport, normalised to the oocyte type control",97 ± 3.2%
